# Reference: patent publication US20260108527A1, “POLO LIKE KINASE 4 INHIBITORS” (ORIC Pharmaceuticals, Inc., priority 2022, published 2026)
# How the values were obtained:
# human recombinant PLK4 = molecular target: T1, human recombinant PLK4 (Homo sapiens, UniProt O00444); experiment: PLK4 Biochemical Assay (ADP-Glo); conditions: 0.5 nM PLK4, 8.0 μM ATP, 4.7 μM MBP, 6 hours at RT
# T1 construct: purchased ThermoFisher PV6396
# T1 sequence (O00444 1-970): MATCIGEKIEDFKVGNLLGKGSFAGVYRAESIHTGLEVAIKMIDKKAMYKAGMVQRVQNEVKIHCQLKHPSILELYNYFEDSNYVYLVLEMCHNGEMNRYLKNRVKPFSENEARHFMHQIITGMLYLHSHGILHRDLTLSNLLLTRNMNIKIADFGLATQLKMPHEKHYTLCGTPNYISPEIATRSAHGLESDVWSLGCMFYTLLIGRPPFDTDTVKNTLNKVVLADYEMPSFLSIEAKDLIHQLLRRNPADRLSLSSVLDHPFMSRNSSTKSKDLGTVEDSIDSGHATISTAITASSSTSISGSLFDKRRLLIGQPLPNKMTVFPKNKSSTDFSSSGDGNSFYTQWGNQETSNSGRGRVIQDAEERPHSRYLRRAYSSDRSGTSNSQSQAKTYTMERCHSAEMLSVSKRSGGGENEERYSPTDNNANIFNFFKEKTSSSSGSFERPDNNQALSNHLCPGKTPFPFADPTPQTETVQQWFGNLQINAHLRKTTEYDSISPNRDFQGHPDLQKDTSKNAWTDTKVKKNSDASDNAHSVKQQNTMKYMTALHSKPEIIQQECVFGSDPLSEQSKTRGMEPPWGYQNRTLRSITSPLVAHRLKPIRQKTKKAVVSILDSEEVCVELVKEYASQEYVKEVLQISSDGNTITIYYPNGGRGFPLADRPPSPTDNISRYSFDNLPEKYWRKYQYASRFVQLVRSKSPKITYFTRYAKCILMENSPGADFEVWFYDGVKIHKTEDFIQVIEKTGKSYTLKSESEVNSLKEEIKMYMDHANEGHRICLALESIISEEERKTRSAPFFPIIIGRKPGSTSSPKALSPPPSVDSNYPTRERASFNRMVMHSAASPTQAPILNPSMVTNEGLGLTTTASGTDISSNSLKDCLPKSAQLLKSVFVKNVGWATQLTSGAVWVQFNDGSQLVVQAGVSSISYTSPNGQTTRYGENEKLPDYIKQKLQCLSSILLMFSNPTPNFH
# Description: Activity of human recombinant PLK4 (ThermoFisher, cat #PV6396) was measured by quantification of adenosine diphosphate (ADP) using the ADP-Glo Kinase Assay Kit (Promega, cat #V9102). […] 5 μL of 1.0 nM PLK4 protein in assay buffer (50 mM HEPES, pH 7.5, 0.01% Brij-35, 0.01% BSA, 10 mM MgCl2, 1 mM EGTA, 1 mM DTT) was added to the plates. Test compounds and PLK4 were incubated for 15 minutes at room temperature (RT). […] Reactions were stopped and the remaining ATP depleted by adding 10 μL of ADP-Glo reagent (Promega, cat #V912B) and incubating for 40 minutes at RT. The simultaneous conversion of the remaining ADP to ATP and measurement of the newly synthesized ATP was achieved by addition of 20 μL Kinase Detection reagent (Promega, cat #V914B), incubation for 30 min at RT, and luminescence detection using the EnVision plate reader (PerkinElmer). […] The IC50 values reported in Table 2 were determined using four parameter non-linear regression curve fit.
# CHP134 = CHP134 CellTiter-Glo (CTG) Assay; format: cell-based; conditions: Homo sapiens, CHP-134, 120 h; viable cells by CellTiter-Glo after 5 days
# Description: […] cells (DSMZ-German Collection of Microorganisms and Cell Cultures, Braunschweig Germany) were cultured in RPMI 1640 supplemented with 10% fetal bovine serum, penicillin (100 U/ml), 1% L-Glutamine and streptomycin ([…]). Cells were seeded (200 cells/well) in 384-well plates for 16 hours. On day two, nine serial 1:3 compound dilutions were made in DMSO in a 96-well plate. The compounds were then further diluted into growth media using a BRAVO robot (Agilent, Santa Clara, CA). The diluted compounds were then added to quadruplicate wells in the 384-well cell plate and incubated at 37° C. and 5% CO2. After 5 days, relative numbers of viable cells were measured by luminescence using CellTiter-Glo® (Promega) according to the manufacturer's instructions and read on a SPARK Multimode Microplate Reader (Tecan, Mannedorf Switzerland). The IC50 calculations for the values reported in Table 2 were carried out using Prism 6.0 software (GraphPad, San Diego).
# [1] = molecular target: T2, human recombinant Aurora B (Homo sapiens, UniProt Q96GD4); experiment: Aurora B Kinase Biochemical Assay (ADP-Glo); conditions: selectivity ratio; Aurora B 10 nM, 114 μM ATP
# T2 construct: purchased ThermoFisher PR9210B
# T2 sequence (Q96GD4 whole entry): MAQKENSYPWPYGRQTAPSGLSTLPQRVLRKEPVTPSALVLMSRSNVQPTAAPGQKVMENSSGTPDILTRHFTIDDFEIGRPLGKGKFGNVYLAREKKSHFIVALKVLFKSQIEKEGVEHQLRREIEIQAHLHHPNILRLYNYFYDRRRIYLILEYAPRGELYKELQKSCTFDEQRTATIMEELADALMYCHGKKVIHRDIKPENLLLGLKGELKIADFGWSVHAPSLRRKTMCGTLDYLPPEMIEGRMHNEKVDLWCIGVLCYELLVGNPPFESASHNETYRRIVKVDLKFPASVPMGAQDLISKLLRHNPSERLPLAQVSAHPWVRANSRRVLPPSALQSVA
# Description: Activity of human recombinant Aurora B (ThermoFisher, cat #PR9210B) was measured by quantification of adenosine diphosphate (ADP) using the ADP-Glo Kinase Assay Kit (Promega, cat #V9102). Test compounds were solubilized in dimethyl sulfoxide (DMSO) and dispensed into 384-well white polystyrene nonbinding plates (Greiner, cat #781094) using the Echo acoustic dispenser (Labcyte Inc.) in a 11-point 3-fold titration in duplicates. 5 μL of 20 nM Aurora B in assay buffer (50 mM HEPES, pH 7.5, 0.01% Brij-35, 0.01% BSA, 10 mM MgCl2, 1 mM EGTA, 1 mM DTT) was added to the plates. Test compounds and Aurora B were incubated for 15 minutes at room temperature (RT). Then 5 μL of a 228 μM adenosine triphosphate (ATP) (Promega, cat #V915B) and 9.3 μM Myelin Basic Protein (MBP) (SignalChem, cat #M42-51N) substrate solution in assay buffer was added and the reaction mixture was incubated for 2 hours at RT. The final concentration of Aurora b, ATP and MBP in the reactions were 10 nM, 114 μM and 4.7 μM, respectively. Reactions were stopped and the remaining ATP depleted by adding 10 μL of ADP-Glo reagent (Promega, cat #V912B) and incubating for 40 minutes at RT. The simultaneous conversion of the remaining ADP to ATP and measurement of the newly synthesized ATP was achieved by addition of 20 μL Kinase Detection reagent (Promega, cat #V9141B), incubation for 30 min at RT, and luminescence detection using the EnVision plate reader (PerkinElmer). Reactions lacking Aurora B were used as […]. Reactions containing DMSO alone were used as […]. The IC50 values reported in Table 2 were determined using four parameter non-linear regression curve fit.
# [2] = molecular target: T3, human recombinant Aurora A (Homo sapiens, UniProt O14965); experiment: Aurora A Kinase Biochemical Assay (ADP-Glo); conditions: selectivity ratio; Aurora A 2.5 nM, 20 μM ATP
# T3 construct: purchased ThermoFisher PR5935A
# T3 sequence (O14965 1-403): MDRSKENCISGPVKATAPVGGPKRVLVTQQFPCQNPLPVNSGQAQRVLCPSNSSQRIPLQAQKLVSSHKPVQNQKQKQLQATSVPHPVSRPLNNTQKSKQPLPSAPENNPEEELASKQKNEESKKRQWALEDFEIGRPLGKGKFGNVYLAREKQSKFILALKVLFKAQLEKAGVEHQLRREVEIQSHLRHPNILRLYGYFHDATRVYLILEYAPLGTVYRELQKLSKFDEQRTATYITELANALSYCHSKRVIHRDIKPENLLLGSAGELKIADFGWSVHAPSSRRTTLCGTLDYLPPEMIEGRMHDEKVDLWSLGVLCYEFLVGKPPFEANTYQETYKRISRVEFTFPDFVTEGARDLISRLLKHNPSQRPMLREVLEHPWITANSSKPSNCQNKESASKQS
# Description: Activity of human recombinant Aurora A (ThermoFisher, cat #PR5935A) was measured by quantification of adenosine diphosphate (ADP) using the ADP-Glo Kinase Assay Kit (Promega, cat #V9102). Test compounds were solubilized in dimethyl sulfoxide (DMSO) and dispensed into 384-well white polystyrene nonbinding plates (Greiner, cat #781094) using the Echo acoustic dispenser (Labcyte Inc.) in a 11-point 3-fold titration in duplicates. 5 μL of 5.0 nM Aurora A in assay buffer (50 mM HEPES, pH 7.5, 0.01% Brij-35, 0.01% BSA, 10 mM MgCl2, 1 mM EGTA, 1 mM DTT) was added to the plates. Test compounds and Aurora A were incubated for 15 minutes at room temperature (RT). Then 5 μL of a 40 μM adenosine triphosphate (ATP) (Promega, cat #V915B) and 9.3 μM Myelin Basic Protein (MBP) (SignalChem, cat #M42-51N) substrate solution in assay buffer was added and the reaction mixture was incubated for 2 hours at RT. The final concentration of Aurora A, ATP and MBP in the reactions were 2.5 nM, 20 μM and 4.7 μM, respectively. Reactions were stopped and the remaining ATP depleted by adding 10 μL of ADP-Glo reagent (Promega, cat #V912B) and incubating for 40 minutes at RT. The simultaneous conversion of the remaining ADP to ATP and measurement of the newly synthesized ATP was achieved by addition of 20 μL Kinase Detection reagent (Promega, cat #V914B), incubation for 30 min at RT, and luminescence detection using the EnVision plate reader (PerkinElmer). Reactions lacking Aurora A were used as 100% inhibition controls. Reactions containing DMSO alone were used as 0% inhibition controls. The IC50 values reported in Table 2 were determined using four parameter non-linear regression curve fit.
IC50 (human recombinant PLK4) [nM],[Aurora B IC50 (nM)]/[PLK4 IC50 (nM)] [1],[Aurora A IC50 (nM)]/[PLK4 IC50 (nM)] [2],SMILES,IC50 (CHP134) [nM]
0.862,,,"COc1ccc2c(c1)[C@]1(C[C@H]1c1ccc3c(Nc4ccc(C5(N(C)C)COC5)cc4OC)n[nH]c3c1)C(=O)N2 [Example 9, (1R,2S)-2-(3-{4-[3-(dimethylamino)oxetan-3-yl]-2-methoxyanilino}-1H-indazol-6-yl)-5′-methoxyspiro[cyclopropane-1,3′-indol]-2′(1′H)-one]",166
2.41,608.5512,934.8277,"COc1ccc2c(c1)[C@]1(C[C@H]1c1ccc3c(Nc4nc(-c5cncnc5)ncc4OC)n[nH]c3c1)C(=O)N2 [Example 25, (1R,2S)-5′-methoxy-2-{3-[(5-methoxy[2,5′-bipyrimidin]-4-yl)amino]-1H-indazol-6-yl}spiro[cyclopropane-1,3′-indol]-2′(1′H)-one]",
2.29,12202.7972,4350.9615,"COc1ccc2c(c1)[C@]1(C[C@H]1c1ccc3c(Nc4cc(-c5cn(C)nc5OC)ccc4OC)n[nH]c3c1)C(=O)N2 [Example 36, (1R,2S)-5′-methoxy-2-{3-[2-methoxy-5-(3-methoxy-1-methyl-1H-pyrazol-4-yl)anilino]-1H-indazol-6-yl}spiro[cyclopropane-1,3′-indol]-2′(1′H)-one]",
